Laboratory results: patent publication US10919896B2, “Preparation and uses of pyrimidinone derivatives” (Cancer Research Technology Limited, priority 2016, dated 2021)
Structures can show the parent of a compound that is named as a salt.

Assays:
[1] = tested on: Cdc7 (pS53MCM2 levels in HCT116 cells); test: Cdc7 Cell Pharmacodynamics Assay Method 1: pS53MCM2 levels in HCT116 cells, 6 hours; type: cell-based; conditions: Homo sapiens, HCT-116, 6 h, read-out: Biomarker Method 1 (pEC50) (converted)
How it was run: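 HCT116 cells (wild-type p53), 20,000 per well in McCoys 5A with 10% FCS, treated with compound for 6 h at 37 °C. Lysates captured on total-MCM2 antibody and probed with anti-pMCM2 Ser53 plus HRP secondary; chemiluminescent read-out of pS53MCM2 levels.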

Cdc7/Dbf4 = Cdc7/Dbf4 (Homo sapiens, UniProt O00311); test: Cdc7 Biochemical Assay Method 3: Cdc7/Dbf4 Enzyme TR-FRET Assay measuring pS40MCM2; conditions: 1 μM ATP, read-out: Biochemical Method 3 (pIC50) (converted)
Chain of Cdc7/Dbf4 (O00311 whole entry): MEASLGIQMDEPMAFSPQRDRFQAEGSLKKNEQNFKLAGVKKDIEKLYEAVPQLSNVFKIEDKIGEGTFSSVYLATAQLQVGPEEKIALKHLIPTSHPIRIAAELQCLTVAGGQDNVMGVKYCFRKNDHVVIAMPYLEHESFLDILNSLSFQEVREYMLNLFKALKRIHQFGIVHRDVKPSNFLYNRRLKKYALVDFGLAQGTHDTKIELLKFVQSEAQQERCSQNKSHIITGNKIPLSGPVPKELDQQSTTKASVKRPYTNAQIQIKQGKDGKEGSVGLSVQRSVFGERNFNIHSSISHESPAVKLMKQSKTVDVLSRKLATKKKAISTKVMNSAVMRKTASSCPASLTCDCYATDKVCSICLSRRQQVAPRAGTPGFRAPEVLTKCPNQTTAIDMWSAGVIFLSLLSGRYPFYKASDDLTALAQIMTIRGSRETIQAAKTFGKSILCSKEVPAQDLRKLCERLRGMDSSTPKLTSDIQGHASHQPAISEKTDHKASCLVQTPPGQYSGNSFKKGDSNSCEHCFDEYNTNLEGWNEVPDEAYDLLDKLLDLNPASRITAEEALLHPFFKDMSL
Chain of Cdc7/Dbf4 (Q9UBU7 whole entry partner): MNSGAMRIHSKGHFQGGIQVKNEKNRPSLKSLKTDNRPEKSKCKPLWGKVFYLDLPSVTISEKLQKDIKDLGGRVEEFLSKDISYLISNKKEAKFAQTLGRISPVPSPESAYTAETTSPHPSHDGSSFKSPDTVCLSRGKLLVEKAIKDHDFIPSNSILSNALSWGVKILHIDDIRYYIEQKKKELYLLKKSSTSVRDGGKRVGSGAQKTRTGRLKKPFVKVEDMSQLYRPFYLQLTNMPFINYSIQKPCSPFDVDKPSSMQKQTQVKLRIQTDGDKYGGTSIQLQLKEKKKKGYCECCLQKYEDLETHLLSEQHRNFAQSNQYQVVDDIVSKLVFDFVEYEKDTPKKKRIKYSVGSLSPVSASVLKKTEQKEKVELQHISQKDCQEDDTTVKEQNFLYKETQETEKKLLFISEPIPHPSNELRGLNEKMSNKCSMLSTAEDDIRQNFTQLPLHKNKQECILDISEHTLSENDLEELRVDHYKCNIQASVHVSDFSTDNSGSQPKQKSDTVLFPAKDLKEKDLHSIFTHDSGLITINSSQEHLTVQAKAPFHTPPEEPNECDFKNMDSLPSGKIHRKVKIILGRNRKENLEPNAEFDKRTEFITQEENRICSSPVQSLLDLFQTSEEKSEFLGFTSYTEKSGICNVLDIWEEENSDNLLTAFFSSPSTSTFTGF
How it was run: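 2.5 nM Cdc7/Dbf4 incubated with 100 nM biotinylated MCM2-derived peptide and 1 μM ATP, 120 minutes at 25° C. Phospho-S40 detected by TR-FRET using anti-pS40 Mcm2 antibody, terbium anti-rabbit secondary and streptavidin-Alexa Fluor488.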

EC50 [1] | IC50 (Cdc7/Dbf4) | SMILES
33.1 nM | 0.355 nM | O=c1[nH]c(-c2ccnc(F)c2)nc(N2CCCC(F)(F)C2)c1Cl [Compound 90, 5-chloro-4-(3,3-difluoro-1-piperidyl)-2-(2-fluoro-4-pyridyl)-1H-pyrimidin-6-one]
107 nM | 2.34 nM | C[C@H]1CN(c2nc(-c3ccncc3)[nH]c(=O)c2Cl)CCN1 [Compound 130]
324 nM | 4.07 nM | O=c1[nH]c(-c2ccncc2)nc(N2CCN[C@H](C(F)(F)F)C2)c1Cl [Compound 139]
115 nM | 1.55 nM | O=c1[nH]c(-c2ccncc2)nc(N2CCN(CC(F)F)CC2)c1Cl [Compound 147]
31.6 nM | 1.05 nM | CC(C)[C@H]1CN(c2nc(-c3ccnc(F)c3)[nH]c(=O)c2Cl)CCN1 [Compound 170]
26.9 nM | 1.38 nM | O=c1[nH]c(-c2ccncc2)nc(N2CCN[C@@H](C(F)(F)F)C2)c1Cl [Compound 180]
85.1 nM | 0.724 nM | CC(C)(C)[C@H]1CN(c2nc(-c3ccncc3)[nH]c(=O)c2F)CCN1 [Compound 185]
347 nM |  | O=c1[nH]c(-c2ccncc2)nc(N2CCCOCC2)c1Cl [Compound 186]
178 nM |  | CC(C)[C@H]1CN(c2nc(-c3ccncc3)[nH]c(=O)c2F)CCN1 [Compound 308]
 | 0.589 nM | O=c1[nH]c(-c2ccnc(F)c2)nc(N2CCNCC(F)(F)C2)c1Cl [Compound 312, 5-chloro-4-(6,6-difluoro-1,4-diazepan-1-yl)-2-(2-fluoro-4-pyridyl)-1H-pyrimidin-6-one hydrochloride]
12.3 nM |  | O=c1[nH]c(-c2ccnc(F)c2)nc(N2CCN[C@@H](C(F)(F)F)C2)c1Cl [Compound 314]
39.8 nM | 0.525 nM | O=c1[nH]c(-c2ccnc(F)c2)nc(N2CCOCC2)c1Cl [Compound 316]
97.7 nM | 0.676 nM | N[C@H]1CCCN(c2nc(-c3ccnc(F)c3)[nH]c(=O)c2Cl)C1 [Compound 317]
74.1 nM | 0.933 nM | N[C@@H]1CCCN(c2nc(-c3ccnc(F)c3)[nH]c(=O)c2Cl)C1 [Compound 319]
22.4 nM | 0.537 nM | C[C@@H]1CNCCN1c1nc(-c2ccnc(F)c2)[nH]c(=O)c1Cl [Compound 323]
57.5 nM | 0.871 nM | O=c1[nH]c(-c2ccnc(F)c2)nc(N2CCNCC2)c1Cl [Compound 360]
302 nM |  | NC[C@H]1CCCN(c2nc(-c3ccnc(F)c3)[nH]c(=O)c2Cl)C1 [Compound 362]
794 nM |  | NC[C@@H]1CCCN(c2nc(-c3ccnc(F)c3)[nH]c(=O)c2Cl)C1 [Compound 363]
20.4 nM | 1.41 nM | C[C@@H]1CNCCN1c1nc(-c2ccncc2)[nH]c(=O)c1Cl [Compound 364]
